Columns and labels:
Format in all cases: cell-based, mouse
[1] = system: α7 integrin (LacZ reporter in α7βgal+/− myoblasts); assay: Myoblast α7+/LacZ integrin FDG assay (Burkin assay in myoblasts, 96-well); details: α7+/LacZ myoblasts, 96-well
[2] = system: α7 integrin (LacZ reporter in α7+/LacZ myotubes); assay: Myotube α7 integrin FDG assay (Burkin assay in myotubes, 96-well); details: myotubes
[3] = system: β-galactosidase in CMV-LacZ C2C12 myotubes; assay: CMV-LacZ secondary screen in C2C12 myotubes (β-Gal stabilizing assay); details: for CMV-LACZ in Myotubes (β-galactosidase activity relative to DMSO): CMV-LacZ C2C12 myotubes, 96-well format; for CMV-LACZ in Myotubes, signal relative to DMSO: C2C12 CMV-LacZ myotubes, fold relative to DMSO
Procedure, shortened: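 Dose-response runs at 0.5–40 μM (0.5, 1, 5, 10, 20, 40 μM; N=2 per point) used a clonal C2C12 line carrying CMV-LacZ. Cells were assayed as myoblasts or as differentiated myotubes, and β-galactosidase levels were read with the FDG fluorogenic substrate.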

Compound | Burkin Assay in Myoblasts, value relative to DMSO ([1]; 0.5 uM) | Burkin Assay in Myoblasts, value relative to DMSO ([1]; 1 uM) | Burkin Assay in Myoblasts, value relative to DMSO ([1]; 5 uM) | Burkin Assay in Myoblasts, value relative to DMSO ([1]; 10 uM) | Burkin Assay in Myoblasts, value relative to DMSO ([1]; 20 uM) | Burkin Assay in Myoblasts, value relative to DMSO ([1]; 40 uM) | Burkin Assay in Myotubes (signal relative to DMSO) ([2]; 0.5 uM) | Burkin Assay in Myotubes (signal relative to DMSO) ([2]; 1 uM) | Burkin Assay in Myotubes (signal relative to DMSO) ([2]; 5 uM) | Burkin Assay in Myotubes (signal relative to DMSO) ([2]; 10 uM) | Burkin Assay in Myotubes (signal relative to DMSO) ([2]; 20 uM) | Burkin Assay in Myotubes (signal relative to DMSO) ([2]; 40 uM) | CMV-LACZ in Myotubes (β-galactosidase activity relative to DMSO) ([3]; 5 uM) | CMV-LACZ in Myotubes (β-galactosidase activity relative to DMSO) ([3]; 10 uM) | CMV-LACZ in Myotubes (β-galactosidase activity relative to DMSO) ([3]; 20 uM) | CMV-LACZ in Myotubes (β-galactosidase activity relative to DMSO) ([3]; 40 uM) | CMV-LACZ in Myotubes, signal relative to DMSO ([3]; 5 uM) | CMV-LACZ in Myotubes, signal relative to DMSO ([3]; 10 uM) | CMV-LACZ in Myotubes, signal relative to DMSO ([3]; 20 uM) | CMV-LACZ in Myotubes, signal relative to DMSO ([3]; 40 uM) | further results
CS(=O)(=O)Cc1cccc(C(=O)NN(c2ccccc2)c2ccccc2)c1 [MLS001175473-01] | 0.5331 | 0.3721 | 0.8732 | 0.8715 | 0.899 | 0.8698 | 0.9556 | 0.9177 | 0.8872 | 0.9977 | 1.041 | 0.7971 | 0.8962 | 0.8587 | 0.9592 | 1.066 | – | – | – | – | –
C/C(=N\Nc1nncc2ccccc12)c1cccc(OC(F)F)c1 [MLS001175556-01] | 0.92 | 0.8625 | 0.9202 | 0.8856 | 0.8956 | 0.8018 | 0.949 | 1.028 | 1.1 | 0.9013 | 0.901 | 0.7514 | 1.113 | 1.053 | 0.9158 | 1.103 | – | – | – | – | –
Cc1ccc(NC(=O)NCc2nc3ccccc3n2C)cc1 [MLS001175592-01] | 0.8989 | 0.8859 | 0.9323 | 0.9006 | 0.9731 | 0.9405 | 0.9685 | 0.986 | 0.6911 | 1.034 | 0.6445 | 1.047 | – | – | – | – | 0.947 | 1.031 | 0.9649 | 1.018 | –
CN(C)S(=O)(=O)c1cccc(C(=O)Nc2ccc3c(c2)CCC3)c1 [MLS001176611-01] | 1.049 | 0.994 | 1.097 | 1.072 | 0.8398 | 0.9134 | 0.9506 | 0.6671 | 1.066 | 0.9301 | 0.9665 | 0.9846 | 0.9287 | 1.235 | 1.034 | 0.785 | – | – | – | – | –
CC(=O)Nc1ccc(NC(=O)[C@@H](NC(=O)c2cccc(C)c2)C(C)C)cc1 [MLS001176897-01] | 0.9342 | 0.9456 | 0.9058 | 0.9978 | 0.9458 | 0.9475 | 0.9577 | 1.073 | 1.022 | 1.194 | 1.145 | 1.163 | 1.009 | 0.797 | 1.121 | 1.046 | – | – | – | – | –
COc1ccccc1OCC(=O)Nc1cc2c(cc1C(=O)O)OCCCO2 [MLS001177045-01] | 0.8463 | 1.032 | 1.0025 | 1.0259 | 1.031 | 0.9569 | 1.047 | 0.8145 | 1.024 | 1.0851 | 1.11 | 0.9678 | 0.9238 | 1.11 | 1.058 | 1.118 | – | – | – | – | –
CCCCNC(=O)CSc1nnc(Cc2ccc(Cl)c(Cl)c2)c(=O)[nH]1 [MLS001177259-01] | – | – | – | – | – | – | – | – | – | – | – | – | – | – | – | – | 0.9462 | 0.7316 | 0.8543 | 1.1 | Burkin Assay in Myoblasts, signal relative to DMSO ([1]; 0.5 uM): 0.9606; Burkin Assay in Myoblasts, signal relative to DMSO ([1]; 1 uM): 0.9896; Burkin Assay in Myoblasts, signal relative to DMSO ([1]; 5 uM): 0.9735; Burkin Assay in Myoblasts, signal relative to DMSO ([1]; 10 uM): 0.9165; Burkin Assay in Myoblasts, signal relative to DMSO ([1]; 20 uM): 0.7694; Burkin Assay in Myoblasts, signal relative to DMSO ([1]; 40 uM): 0.7773; Burkin Assay in Myotubes, α7 integrin LacZ reporter signal relative to DMSO ([2]; 0.5 uM): 0.948; Burkin Assay in Myotubes, α7 integrin LacZ reporter signal relative to DMSO ([2]; 1 uM): 1.053; Burkin Assay in Myotubes, α7 integrin LacZ reporter signal relative to DMSO ([2]; 5 uM): 0.9988; Burkin Assay in Myotubes, α7 integrin LacZ reporter signal relative to DMSO ([2]; 10 uM): 1.044; Burkin Assay in Myotubes, α7 integrin LacZ reporter signal relative to DMSO ([2]; 20 uM): 0.8187; Burkin Assay in Myotubes, α7 integrin LacZ reporter signal relative to DMSO ([2]; 40 uM): 0.9237
CS(=O)(=O)c1ccc(Cl)c(NC(=O)CSc2nncn2-c2ccccc2)c1 [MLS001177364-01] | – | – | – | – | – | – | – | – | – | – | – | – | – | – | – | – | 1.262 | 0.9578 | 1.053 | 0.9743 | Burkin Assay in Myoblasts, signal relative to DMSO ([1]; 0.5 uM): 1.082; Burkin Assay in Myoblasts, signal relative to DMSO ([1]; 1 uM): 0.9869; Burkin Assay in Myoblasts, signal relative to DMSO ([1]; 5 uM): 0.9655; Burkin Assay in Myoblasts, signal relative to DMSO ([1]; 10 uM): 0.9015; Burkin Assay in Myoblasts, signal relative to DMSO ([1]; 20 uM): 1.005; Burkin Assay in Myoblasts, signal relative to DMSO ([1]; 40 uM): 0.8386; Burkin Assay in Myotubes, α7 integrin LacZ reporter signal relative to DMSO ([2]; 0.5 uM): 1.036; Burkin Assay in Myotubes, α7 integrin LacZ reporter signal relative to DMSO ([2]; 1 uM): 0.9519; Burkin Assay in Myotubes, α7 integrin LacZ reporter signal relative to DMSO ([2]; 5 uM): 1.235; Burkin Assay in Myotubes, α7 integrin LacZ reporter signal relative to DMSO ([2]; 10 uM): 1.213; Burkin Assay in Myotubes, α7 integrin LacZ reporter signal relative to DMSO ([2]; 20 uM): 1.125; Burkin Assay in Myotubes, α7 integrin LacZ reporter signal relative to DMSO ([2]; 40 uM): 0.6717
Cc1ccccc1C(=O)Nc1scc(-c2ccc(Br)cc2)c1C(=O)O [MLS001179267-01] | 0.983 | 1.031 | 0.9797 | 0.9902 | 0.9305 | 0.95 | 0.947 | 0.8787 | 0.8908 | 0.559 | 0.8589 | 0.5111 | – | – | – | – | 0.9091 | 0.8244 | 0.6141 | 0.5554 | –
COc1ccccc1C(=O)NCCOc1ccc(C(C)(C)C)cc1 [MLS001179624-01] | – | – | – | – | – | – | – | – | – | – | – | – | – | – | – | – | 0.8604 | 0.8788 | 0.452 | 0.4965 | Burkin Assay in Myoblasts, signal relative to DMSO ([1]; 0.5 uM): 0.993; Burkin Assay in Myoblasts, signal relative to DMSO ([1]; 1 uM): 0.9963; Burkin Assay in Myoblasts, signal relative to DMSO ([1]; 5 uM): 0.9515; Burkin Assay in Myoblasts, signal relative to DMSO ([1]; 10 uM): 0.9314; Burkin Assay in Myoblasts, signal relative to DMSO ([1]; 20 uM): 0.879; Burkin Assay in Myoblasts, signal relative to DMSO ([1]; 40 uM): 0.8828; Burkin Assay in Myotubes, α7 integrin LacZ reporter signal relative to DMSO ([2]; 0.5 uM): 0.9052; Burkin Assay in Myotubes, α7 integrin LacZ reporter signal relative to DMSO ([2]; 1 uM): 0.9709; Burkin Assay in Myotubes, α7 integrin LacZ reporter signal relative to DMSO ([2]; 5 uM): 1.048; Burkin Assay in Myotubes, α7 integrin LacZ reporter signal relative to DMSO ([2]; 10 uM): 1.104; Burkin Assay in Myotubes, α7 integrin LacZ reporter signal relative to DMSO ([2]; 20 uM): 0.8903; Burkin Assay in Myotubes, α7 integrin LacZ reporter signal relative to DMSO ([2]; 40 uM): 0.2183

— patent US9980943B2, “Methods of treating muscular dystrophy” (BOARD OF REGENTS OF THE NEVADA SYSTEM OF HIGHER EDUCATION, …, priority 2013, dated 2018)
